How the values were obtained:
AMARE = test: Post-emergence herbicidal effect, greenhouse pot test; format: in vivo, Amaranthus retroflexus; conditions: visual rating about 3 weeks after treatment
Summary of the method: (§1)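 Greenhouse pot test: weeds and crops sown in sandy loam, sprayed post-emergence at one-leaf stage (2–3 weeks after sowing) with WP or EC formulations plus 0.5% additive at 600 l/ha water, rates 20–320 g/ha. Visual rating about 3 weeks later versus untreated controls (100% = dead, 0% = as control).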

ECHCG = test: as above; format: in vivo, Echinochloa crus-galli
Summary of the method: as §1

POLCO = test: as above; format: in vivo, Fallopia convolvulus; conditions: for pest or weed control at 320 g/ha: Fallopia convolvulus, 504 h, read-out: Post-emergence effect against POLCO in %
Summary of the method: as §1

PHBPU = test: as above; format: in vivo, Ipomoea purpurea; conditions: 320 g/ha; for pest or weed control at 320 g/ha: Ipomoea purpurea, 504 h, read-out: Post-emergence effect against PHBPU in %
Summary of the method: as §1

VERPE = test: as above; format: in vivo, Veronica persica; conditions: 320 g/ha; for pest or weed control at 320 g/ha: Veronica persica, 504 h, read-out: Post-emergence effect against VERPE in %
Summary of the method: as §1

ZEAMX = test: Post-emergence herbicidal effect and crop plant compatibility, greenhouse pot test; format: in vivo, Zea mays; conditions: one-leaf stage, rated visually after about 3 weeks vs untreated controls; for plant injury at 20 g/ha: read-out: Post-emergence effect at 20 g/ha against ZEAMX in %; for plant injury at 80 g/ha: read-out: Post-emergence effect at 80 g/ha against ZEAMX in %
Summary of the method: (§2)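 Sandy loam pots, greenhouse. One-leaf stage (2–3 wk after sowing) foliar spray; WP/EC in water + 0.5% additive, 600 l/ha; 20–320 g/ha. Visual score ~3 wk, 0–100% vs untreated.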

ALOMY = test: Post-emergence herbicidal effect, greenhouse pot test; format: in vivo, Alopecurus myosuroides; conditions: visual rating about 3 weeks after treatment; for pest or weed control at 320 g/ha: Alopecurus myosuroides, 504 h, read-out: Post-emergence effect against ALOMY
Summary of the method: as §1

AVEFA = test: as above; format: in vivo, Avena fatua; conditions: visual rating about 3 weeks after treatment
Summary of the method: as §1

DIGSA = test: as above; format: in vivo, Digitaria sanguinalis; conditions: 320 g/ha, visual rating about 3 weeks after treatment; for pest or weed control at 320 g/ha: Digitaria sanguinalis, 504 h, read-out: Post-emergence effect against DIGSA
Summary of the method: as §1

ABUTH = test: as above; format: in vivo, Abutilon theophrasti; conditions: 320 g/ha, visual rating about 3 weeks after treatment; for pest or weed control at 320 g/ha: Abutilon theophrasti, 504 h, read-out: Post-emergence effect against ABUTH
Summary of the method: as §1

SETVI = test: as above; format: in vivo, Setaria viridis; conditions: 320 g/ha; for pest or weed control at 320 g/ha: Setaria viridis, 504 h, read-out: Post-emergence effect against SETVI in %
Summary of the method: as §1

KCHSC = test: as above; format: in vivo
Summary of the method: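 Greenhouse plants in sandy loam, sprayed post-emergence at the one-leaf stage (2–3 weeks after sowing) with WP or EC formulations in water plus 0.5% additive at 600 l/ha. Rates 20 to 320 g/ha. Activity rated visually after about 3 weeks against untreated controls (0% like control, 100% dead).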

TRZAS = test: Post-emergence herbicidal effect and crop plant compatibility, greenhouse pot test; format: in vivo, Triticum aestivum; conditions: 20 g/ha, one-leaf stage, rated visually after about 3 weeks vs untreated controls; for percent crop injury (phytotoxicity) to wheat, post-emergence at 20 g/ha: Triticum aestivum, 504 h, read-out: Post-emergence effect at 20 g/ha against TRZAS in %
Summary of the method: as §2

LOLRI = test: Post-emergence herbicidal effect, greenhouse pot test; format: in vivo, Lolium rigidum; conditions: for pest or weed control at 320 g/ha: Lolium rigidum, 504 h, read-out: Post-emergence effect against LOLRI in %
Summary of the method: as §1

VIOTR = test: as above; format: in vivo, Viola tricolor
Summary of the method: as §1

[1] = Amaranthus retroflexus, 504 h, 320 g/ha, read-out: Post-emergence effect against AMARE
[2] = Echinochloa crus-galli, 504 h, 320 g/ha, read-out: Post-emergence effect against ECHCG in %
[3] = 504 h, 320 g/ha, read-out: Post-emergence effect against KCHSC in %
[4] = Viola tricolor, 504 h, 320 g/ha, read-out: Post-emergence effect against VIOTR in %

## COC(=O)CCOC(=O)C(OC)Oc1nn(-c2ncccc2F)c(-c2ccc(F)nc2)c1C1CC1 (single isomer, unassigned) [Example I-88]
AMARE; 320 g/ha
  Post-emergence effect against AMARE: 80%
ECHCG; 20 g/ha, visual rating about 3 weeks after treatment
  Post-emergence effect against ECHCG: 80%
ECHCG; 80 g/ha
  Post-emergence effect against ECHCG in %: 90%
ECHCG; 320 g/ha
  Post-emergence effect against ECHCG in %: 90%
POLCO; 20 g/ha
  Post-emergence effect against POLCO in %: 80%
POLCO; 80 g/ha
  Post-emergence effect against POLCO in %: 90%
POLCO; 320 g/ha
  Post-emergence effect against POLCO in %: 90%
PHBPU
  Post-emergence effect against PHBPU in %: 90%
VERPE
  Post-emergence effect against VERPE in %: 90%
ZEAMX; 20 g/ha
  Post-emergence effect at 20 g/ha against ZEAMX in %: 0%
ZEAMX; 80 g/ha
  Post-emergence effect at 80 g/ha against ZEAMX in %: 0%
ZEAMX; 320 g/ha
  Post-emergence effect at 320 g/ha against ZEAMX in %: 0%
ALOMY; 80 g/ha
  Post-emergence effect against ALOMY: 90%
ALOMY; 320 g/ha
  Post-emergence effect against ALOMY: 90%
AVEFA; 80 g/ha
  Post-emergence effect against AVEFA: 90%
AVEFA; 320 g/ha
  Post-emergence effect against AVEFA: 90%
DIGSA
  Post-emergence effect against DIGSA: 80%
ABUTH
  Post-emergence effect against ABUTH: 80%
SETVI
  Post-emergence effect against SETVI in %: 90%
KCHSC; 80 g/ha
  Post-emergence effect against KCHSC in %: 80%
KCHSC; 320 g/ha
  Post-emergence effect against KCHSC in %: 80%
TRZAS
  Post-emergence effect at 20 g/ha against TRZAS in %: 20%
LOLRI; 80 g/ha
  Post-emergence effect against LOLRI in %: 90%
LOLRI; 320 g/ha
  Post-emergence effect against LOLRI in %: 90%
VIOTR; 80 g/ha
  Post-emergence effect against VIOTR in %: 80%
VIOTR; 320 g/ha
  Post-emergence effect against VIOTR in %: 90%

## COC(Oc1nn(-c2cnccn2)c(-c2ccc(F)nc2)c1Cl)C(=O)O (stereo not shown) [Example I-42, {[4-Chloro-5-(6-fluoropyridin-3-yl)-1-(pyrazin-2-yl)-1H-pyrazol-3-yl]oxy}(methoxy)acetic acid]
AMARE; [1]
  pest or weed control at 320 g/ha: 80%
ECHCG; [2]
  pest or weed control at 320 g/ha: 90%
POLCO; 320 g/ha
  pest or weed control at 320 g/ha: 80%
PHBPU
  pest or weed control at 320 g/ha: 80%
VERPE
  pest or weed control at 320 g/ha: 80%
ZEAMX; Zea mays, 504 h, 20 g/ha
  plant injury at 20 g/ha: 0%
ZEAMX; Zea mays, 504 h, 80 g/ha
  plant injury at 80 g/ha: 0%
ZEAMX; Zea mays, 504 h, 320 g/ha, read-out: Post-emergence effect at 320 g/ha against ZEAMX in %
  plant injury at 320 g/ha: 20%
ALOMY; 320 g/ha
  pest or weed control at 320 g/ha: 90%
DIGSA
  pest or weed control at 320 g/ha: 90%
ABUTH
  pest or weed control at 320 g/ha: 80%
SETVI
  pest or weed control at 320 g/ha: 80%
KCHSC; [3]
  pest or weed control at 320 g/ha: 90%
TRZAS
  percent crop injury (phytotoxicity) to wheat, post-emergence at 20 g/ha: 0%
LOLRI; 320 g/ha
  pest or weed control at 320 g/ha: 90%
VIOTR; [4]
  pest or weed control at 320 g/ha: 90%

## CCOC(=O)C(OC)Oc1nn(-c2cnccn2)c(-c2ccc(F)nc2)c1Cl (stereo not shown) [Example I-46]
AMARE; Amaranthus retroflexus, 504 h, 80 g/ha, read-out: Post-emergence effect against AMARE
  pest or weed control at 80 g/ha: 80%
AMARE; [1]
  pest or weed control at 320 g/ha: 80%
ECHCG; Echinochloa crus-galli, 504 h, 80 g/ha, read-out: Post-emergence effect against ECHCG in %
  pest or weed control at 80 g/ha: 80%
ECHCG; [2]
  pest or weed control at 320 g/ha: 90%
POLCO; 320 g/ha
  pest or weed control at 320 g/ha: 80%
PHBPU
  pest or weed control at 320 g/ha: 90%
VERPE
  pest or weed control at 320 g/ha: 90%
ZEAMX; Zea mays, 504 h, 20 g/ha
  plant injury at 20 g/ha: 0%
ZEAMX; Zea mays, 504 h, 80 g/ha
  plant injury at 80 g/ha: 20%
ALOMY; 320 g/ha
  pest or weed control at 320 g/ha: 90%
DIGSA
  pest or weed control at 320 g/ha: 80%
ABUTH
  pest or weed control at 320 g/ha: 80%
SETVI
  pest or weed control at 320 g/ha: 90%
KCHSC; 504 h, 80 g/ha, read-out: Post-emergence effect against KCHSC in %
  pest or weed control at 80 g/ha: 80%
KCHSC; [3]
  pest or weed control at 320 g/ha: 90%
TRZAS
  percent crop injury (phytotoxicity) to wheat, post-emergence at 20 g/ha: 0%
LOLRI; 320 g/ha
  pest or weed control at 320 g/ha: 90%
VIOTR; Viola tricolor, 504 h, 80 g/ha, read-out: Post-emergence effect against VIOTR in %
  pest or weed control at 80 g/ha: 90%
VIOTR; [4]
  pest or weed control at 320 g/ha: 90%

Reference: patent US20240391862A1, “(1,4,5-TRISUBSTITUTED-1H-PYRAZOL-3-YL)OXY-2-ALKOXY ALKYL ACIDS AND THEIR DERIVATIVES, THEIR SALTS AND THEIR USE AS HERBICIDAL AGENTS” (Bayer AKtiengesellschaft, priority 2021, published 2024)
